# Measurements taken from patent US10329254B2, “Process for the preparation of 6-chloro-2,3,4,9-tetrahydro-1H-carbazole-1-carboxamide and intermediates thereof” (AOP ORPHAN PHARMACEUTICALS AG, priority 2011, dated 2019).
# Tests used:
# Sirt1 = target: T1, Sirt1 (Homo sapiens, UniProt Q96EB6); conditions: known from WO2005026112; cited from earlier work
# T1 sequence (Q96EB6 1-747): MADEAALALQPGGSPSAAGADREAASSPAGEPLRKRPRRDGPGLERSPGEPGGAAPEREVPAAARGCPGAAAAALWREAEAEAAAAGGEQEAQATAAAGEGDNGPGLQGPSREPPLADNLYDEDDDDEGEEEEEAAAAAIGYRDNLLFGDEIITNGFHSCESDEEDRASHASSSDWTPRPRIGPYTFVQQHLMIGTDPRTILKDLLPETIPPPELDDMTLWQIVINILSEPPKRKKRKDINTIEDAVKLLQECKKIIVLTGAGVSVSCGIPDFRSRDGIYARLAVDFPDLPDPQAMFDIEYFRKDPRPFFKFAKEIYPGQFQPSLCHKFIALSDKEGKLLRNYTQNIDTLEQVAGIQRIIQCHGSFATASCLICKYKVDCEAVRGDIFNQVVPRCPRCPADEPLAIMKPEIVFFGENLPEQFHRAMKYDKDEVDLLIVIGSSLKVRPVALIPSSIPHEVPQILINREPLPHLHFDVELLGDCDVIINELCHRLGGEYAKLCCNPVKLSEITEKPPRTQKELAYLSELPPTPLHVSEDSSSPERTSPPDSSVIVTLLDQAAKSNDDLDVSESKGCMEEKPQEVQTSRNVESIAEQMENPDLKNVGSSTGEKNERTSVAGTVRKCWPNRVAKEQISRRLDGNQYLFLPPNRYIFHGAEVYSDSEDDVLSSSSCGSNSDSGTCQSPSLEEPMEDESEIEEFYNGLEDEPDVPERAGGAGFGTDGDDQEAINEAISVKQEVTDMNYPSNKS
# [1] = Form A stability tests under simulated drug substance storage conditions; type: physicochemical
# Description: Tables 3 and 4: Form A stability data: Compound (I) in the form of Form A was packed in double bagged polythene bags (fastened with cable/security ties) and placed inside 3.6 L Curtec kegs (HDPE) to simulate typical drug substance storage conditions. Stability tests were performed at 40° C./75% RH (table 3) and 25° C./60% RH (table 4).
# [2] = Hygroscopicity (absorption-desorption spectrum); type: physicochemical; conditions: FIG. 2 / FIG. 7
# From the text: FIG. 2: Absorption-Desorption spectrum of form A FIG. 7: Absorption-desorption spectrum of form B
smiles,measurement,setting,value
"NC(=O)C1CCCc2c1[nH]c1ccc(Cl)cc21 (racemic) [Compound (I), rac-6-Chloro-2,3,4,9-tetrahydro-1H-carbazole-1-carboxamide]",anti Sirt1 activity,Sirt1,anti Sirt1 activity
"NC(=O)C1CCCc2c1[nH]c1ccc(Cl)cc21 (centres unmarked) [Form A, 6-Chloro-2,3,4,9-tetrahydro-1H-carbazole-1-carboxamide]",DSC (conforms to polymorph A),"[1]; 25° C./60% RH, t = 0",Conforms
same,"Impurity content (by HPLC), no single impurity greater than 0.50% area","[1]; 25° C./60% RH, t = 0",Conforms
same,XRPD (conforms to polymorph),"[1]; 25° C./60% RH, t = 0",Conforms
same,Assay (by HPLC),"[1]; 25° C./60% RH, t = 0, on an anhydrous and solvent free basis, spec 98.0-102.0% w/w",99.7% w/w
same,Water content (by KF titration),"[1]; 25° C./60% RH, t = 0, spec: not more than 0.5% w/w",<0.1% w/w
same,"Impurity content (by HPLC), total impurities","[1]; 25° C./60% RH, t = 0, spec: not more than 2.0% area",0.31% area
same,Description,"[1]; 25° C./60% RH, t = 0, spec: white to off-white solid",Off-white
same,Assay (by HPLC),"[1]; 25° C./60% RH, t = 1 month",99.0% w/w
same,Description,"[1]; 25° C./60% RH, t = 1 month",Off-white
same,"Impurity content (by HPLC), no single impurity greater than 0.50% area","[1]; 25° C./60% RH, t = 1 month",Conforms
same,"Impurity content (by HPLC), total impurities","[1]; 25° C./60% RH, t = 1 month",0.54% area
same,Water content (by KF titration),"[1]; 25° C./60% RH, t = 1 month",<0.1% w/w
same,Assay (by HPLC),"[1]; 25° C./60% RH, t = 3 months",99.1% w/w
same,Description,"[1]; 25° C./60% RH, t = 3 months",Off-white
same,"Impurity content (by HPLC), no single impurity greater than 0.50% area","[1]; 25° C./60% RH, t = 3 months",Conforms
same,"Impurity content (by HPLC), total impurities","[1]; 25° C./60% RH, t = 3 months",0.22% area
same,Water content (by KF titration),"[1]; 25° C./60% RH, t = 3 months",0.2% w/w
same,Assay (by HPLC),"[1]; 25° C./60% RH, t = 6 months",98.7% w/w
same,DSC (conforms to polymorph A),"[1]; 25° C./60% RH, t = 6 months",Conforms
same,Description,"[1]; 25° C./60% RH, t = 6 months",Off-white
same,"Impurity content (by HPLC), no single impurity greater than 0.50% area","[1]; 25° C./60% RH, t = 6 months",Conforms
same,"Impurity content (by HPLC), total impurities","[1]; 25° C./60% RH, t = 6 months",0.32% area
same,Water content (by KF titration),"[1]; 25° C./60% RH, t = 6 months",0.1% w/w
same,XRPD (conforms to polymorph),"[1]; 25° C./60% RH, t = 6 months",Conforms
same,Assay (by HPLC),"[1]; 25° C./60% RH, t = 9 months",99.4% w/w
same,Description,"[1]; 25° C./60% RH, t = 9 months",Off-white
same,"Impurity content (by HPLC), no single impurity greater than 0.50% area","[1]; 25° C./60% RH, t = 9 months",Conforms
same,"Impurity content (by HPLC), total impurities","[1]; 25° C./60% RH, t = 9 months",0.29% area
same,Water content (by KF titration),"[1]; 25° C./60% RH, t = 9 months",<0.1% w/w
same,Assay (by HPLC),"[1]; 25° C./60% RH, t = 12 months",99.0% w/w
same,DSC (conforms to polymorph A),"[1]; 25° C./60% RH, t = 12 months",Conforms
same,Description,"[1]; 25° C./60% RH, t = 12 months",Off-white
same,"Impurity content (by HPLC), no single impurity greater than 0.50% area","[1]; 25° C./60% RH, t = 12 months",Conforms
same,"Impurity content (by HPLC), total impurities","[1]; 25° C./60% RH, t = 12 months",0.27% area
same,Water content (by KF titration),"[1]; 25° C./60% RH, t = 12 months",0.1% w/w
same,XRPD (conforms to polymorph),"[1]; 25° C./60% RH, t = 12 months",Conforms
same,Assay (by HPLC),"[1]; 25° C./60% RH, t = 18 months",98.6% w/w
same,Description,"[1]; 25° C./60% RH, t = 18 months",Off-white
same,"Impurity content (by HPLC), no single impurity greater than 0.50% area","[1]; 25° C./60% RH, t = 18 months",Conforms
same,"Impurity content (by HPLC), total impurities","[1]; 25° C./60% RH, t = 18 months",0.26 % area
same,Water content (by KF titration),"[1]; 25° C./60% RH, t = 18 months",0.1% w/w
same,Assay (by HPLC),"[1]; 25° C./60% RH, t = 24 months",98.2% w/w
same,DSC (conforms to polymorph A),"[1]; 25° C./60% RH, t = 24 months",Conforms
same,Description,"[1]; 25° C./60% RH, t = 24 months",Off-white
same,"Impurity content (by HPLC), no single impurity greater than 0.50% area","[1]; 25° C./60% RH, t = 24 months",Conforms
same,"Impurity content (by HPLC), total impurities","[1]; 25° C./60% RH, t = 24 months",0.39% area
same,Water content (by KF titration),"[1]; 25° C./60% RH, t = 24 months",<0.1% w/w
same,XRPD (conforms to polymorph),"[1]; 25° C./60% RH, t = 24 months",Conforms
same,DSC (conforms to polymorph A),"[1]; 40° C./75% RH, t = 0",Conforms
same,"Impurity content (by HPLC), no single impurity greater than 0.50% area","[1]; 40° C./75% RH, t = 0",Conforms
same,XRPD (conforms to polymorph A),"[1]; 40° C./75% RH, t = 0",Conforms
same,Assay (by HPLC),"[1]; 40° C./75% RH, t = 0, anhydrous and solvent free-basis, spec 98.0-102.0% w/w",99.7% w/w
same,Water content (by KF titration),"[1]; 40° C./75% RH, t = 0, spec: not more than 0.5% w/w",<0.1% w/w
same,"Impurity content (by HPLC), total impurities","[1]; 40° C./75% RH, t = 0, spec: not more than 2.0% area",0.31% area
same,Description,"[1]; 40° C./75% RH, t = 0, spec: white to off-white solid",Off-white
same,Description,"[1]; 40° C./75% RH, t = 1 month",Off-white
same,"Impurity content (by HPLC), no single impurity greater than 0.50% area","[1]; 40° C./75% RH, t = 1 month",Conforms
same,"Impurity content (by HPLC), total impurities","[1]; 40° C./75% RH, t = 1 month",0.25% area
same,Water content (by KF titration),"[1]; 40° C./75% RH, t = 1 month",<0.1% w/w
same,Assay (by HPLC),"[1]; 40° C./75% RH, t = 1 month, anhydrous and solvent free-basis",98.9% w/w
same,Description,"[1]; 40° C./75% RH, t = 3 months",Off-white
same,"Impurity content (by HPLC), no single impurity greater than 0.50% area","[1]; 40° C./75% RH, t = 3 months",Conforms
same,"Impurity content (by HPLC), total impurities","[1]; 40° C./75% RH, t = 3 months",0.25% area
same,Water content (by KF titration),"[1]; 40° C./75% RH, t = 3 months",0.4% w/w
same,Assay (by HPLC),"[1]; 40° C./75% RH, t = 3 months, anhydrous and solvent free-basis",99.4% w/w
same,Description,"[1]; 40° C./75% RH, t = 6 months",Off-white
same,"Impurity content (by HPLC), no single impurity greater than 0.50% area","[1]; 40° C./75% RH, t = 6 months",Conforms
same,"Impurity content (by HPLC), total impurities","[1]; 40° C./75% RH, t = 6 months",0.33% area
same,Water content (by KF titration),"[1]; 40° C./75% RH, t = 6 months",0.1% w/w
same,XRPD (conforms to polymorph A),"[1]; 40° C./75% RH, t = 6 months",Conforms
same,Assay (by HPLC),"[1]; 40° C./75% RH, t = 6 months, anhydrous and solvent free-basis",99.0% w/w
same,Stability over time,[1]; Tables 3 and 4 (40° C./75% RH and 25° C./60% RH),stable over time
"NC(=O)C1CCCc2c1[nH]c1ccc(Cl)cc21 (centres unmarked) [Form B, 6-Chloro-2,3,4,9-tetrahydro-1H-carbazole-1-carboxamide]",Hygroscopicity,[2],non hygroscopic
